Results: US7235533B2, “Compounds and their uses” (Rodaris Pharmaceuticals Limited, priority 2000, dated 2007)

How the values were obtained:
[1] = biological target: PKA (Homo sapiens, UniProt P17612); test: PKA inhibition assay; type: biochemical
Excerpt: (§1) Methods for obtaining A-type and P-type mediators are set out in Caro et al, 1997, and in WO98/11116 and WO98/11117. Protocols for determining characteristic IPG biological activities such as PDH activation, PKA inhibition, acetylCoA activation, fructose-1,6-bis-phosphatase activity and lipogenesis are well known in the art or provided in the experimental section below.
(§2) The compounds of the invention can be tested for one or more the characteristic IPG-P and/or IPG-A activities mentioned above to determine whether they will be suitable for use a IPG mimetics or antagonists. Preferred assays measure the effect of the compounds on PDH phosphatase, PKA or lipogenesis. Protocols for these assays are provided in Caro et al^[14].

[2] = biological target: T1, PDH phosphatase (Homo sapiens, UniProt Q9P0J1); test: PDH activation assay; type: biochemical; details: 100 μM compound
T1 sequence (Q9P0J1 72-537): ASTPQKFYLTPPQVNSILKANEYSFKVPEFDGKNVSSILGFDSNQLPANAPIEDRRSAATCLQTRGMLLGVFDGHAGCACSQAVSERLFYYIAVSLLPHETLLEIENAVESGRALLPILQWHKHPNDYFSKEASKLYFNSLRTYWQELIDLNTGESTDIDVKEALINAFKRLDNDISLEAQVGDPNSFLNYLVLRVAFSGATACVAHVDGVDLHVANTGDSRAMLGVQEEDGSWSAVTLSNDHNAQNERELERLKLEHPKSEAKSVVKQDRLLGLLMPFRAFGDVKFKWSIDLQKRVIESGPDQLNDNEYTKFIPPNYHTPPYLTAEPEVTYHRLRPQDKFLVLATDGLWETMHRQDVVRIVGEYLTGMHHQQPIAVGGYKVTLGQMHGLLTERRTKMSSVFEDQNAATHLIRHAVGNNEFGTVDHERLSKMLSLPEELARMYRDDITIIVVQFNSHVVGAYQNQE
Excerpt: as §1, §2

Compound	PKA inhibition ([1]; 0.1 μM compound) [%]	PKA inhibition ([1]; 10 μM compound) [%]	PKA inhibition ([1]; 1.0 μM compound) [%]	PDH activation [2] [%]
6-O-(2-Ammonio-2-deoxy-β-D-glucopyranosyl)-D-chiro-inositol-1-phosphate [RGL1019]	32	31		
COC1C(O)C(O)C(OC2OC(CO)C(O)C(O)C2N)C(O)C1O [RGL1015, O-(2-amino-2-deoxy-D-glucopyranosyl)-β(1,6)-3-O-methyl-chiro-inositol]	14	12	15	38
NC1C(OC2C(O)C(O)C(O)C(O)C2O)OC(CO)C(O)C1O [RGL1018, 6-O-(2-Amino-2-deoxy-β-D-glucopyranosyl)-D-chiro-inositol]	19			
NC1C(OC2C(O)C(O)C(O)C(O)C2O)OC(COP(=O)(O)O)C(O)C1O [RGL1023, 1′-D-6-O-(2′-amino-2′-deoxy-6′-phosphate-α-D-glucopyranosyl)-myo-inositol]				14
CO[C@H]1[C@H](O)[C@@H](O)[C@@H](O[C@H]2O[C@H](CO)[C@@H](O)[C@H](O)[C@H]2N)[C@H](O)[C@@H]1O [RGL1024, O-(2-amino-2-deoxy-D-glucopyranosyl)-α(1,6)-D-3-O-methyl-chiro-inositol]	17	2	34	65

Continued, values first:

PKA inhibition ([1]; 0.1 μM compound) [%]	PKA inhibition ([1]; 10 μM compound) [%]	PKA inhibition ([1]; 1.0 μM compound) [%]	PDH activation [2] [%]	Compound
18	10		132	N[C@H]1[C@@H](O[C@H]2[C@H](O)[C@H](O)[C@H](O)[C@@H](O)[C@@H]2O)O[C@H](CO)[C@@H](OP(=O)(O)O)[C@@H]1O [RGL1027, 1′-D-6-O-(2′-amino-2′-deoxy-4′-phosphate-α-D-glucopyranosyl)-myo-inositol]
59	33		361	N[C@H]1[C@@H](O[C@H]2[C@H](O)[C@H](O)[C@H](O)[C@@H](O)[C@@H]2O)O[C@H](CO)[C@@H](O)[C@@H]1OP(=O)(O)O [RGL1029, 1′-D-6-O-(2′-amino-2′-deoxy-3′-phosphate-α-D-glucopyranosyl)-myo-inositol]
48		−13	17	O-(2-amino-2deoxy-D-galactopyranosyl)-α(1,6)-D-3-O-methyl-chiro-inositol [RGL1025]
